Measured values from PubChem BioAssay AID2060910 (Molecular Pharmacology Branch, DTP, NCI, 2025).
Blank lines part the entries; values can stand above or below the compound they belong to.

System: 242566-281-R-J2-PDC complex spheroid viability
Assay: Anticancer human tumor 242566-281-R-J2-PDC patient-derived pancreatic carcinoma cell line growth inhibition [RAS]
Conditions: for IC50: curve of first compound; for viability, T/C: stronger effect = lower value
How it was run: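 Agents were tested in combination matrices in half-log decrements from a top concentration at or near clinical Cmax (10 microM if undetermined). Targets were multi-cell spheroids of tumour lines plus HUVEC and MSC stromal cells.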

[1] = second compound 0.000949 µM, first compound 0.0316 µM
[2] = second compound 0.000949 µM, first compound 0.1 µM
[3] = second compound 0.000949 µM, first compound 0.316 µM
[4] = second compound 0.000949 µM, first compound 1 µM
[5] = second compound 0.003 µM, first compound 0.0316 µM
[6] = second compound 0.003 µM, first compound 0.1 µM
[7] = second compound 0.003 µM, first compound 0.316 µM
[8] = second compound 0.003 µM, first compound 1 µM
[9] = second compound 0.00949 µM, first compound 0.0316 µM
[10] = second compound 0.00949 µM, first compound 0.1 µM
[11] = second compound 0.00949 µM, first compound 0.316 µM
[12] = second compound 0.00949 µM, first compound 1 µM
[13] = second compound 0.03 µM, first compound 0.0316 µM
[14] = second compound 0.03 µM, first compound 0.1 µM
[15] = second compound 0.03 µM, first compound 0.316 µM
[16] = second compound 0.03 µM, first compound 1 µM
[17] = second compound 0.0949 µM, first compound 0.0316 µM
[18] = second compound 0.0949 µM, first compound 0.1 µM
[19] = second compound 0.0949 µM, first compound 0.316 µM
[20] = second compound 0.0949 µM, first compound 1 µM
[21] = second compound 0.3 µM, first compound 0.0316 µM
[22] = second compound 0.3 µM, first compound 0.1 µM
[23] = second compound 0.3 µM, first compound 0.316 µM
[24] = second compound 0.3 µM, first compound 1 µM
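Further: spheroids exposed to compound for 7 days before readout.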
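Wherever viability, T/C is given: 100% = DMSO vehicle control wells.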

IC50 (second compound 0.000949 µM): < 31.6 nM | IC50 (second compound 0.003 µM): < 31.6 nM | IC50 (second compound 0.00949 µM): < 31.6 nM | IC50 (second compound 0.03 µM): < 31.6 nM | IC50 (second compound 0.0949 µM): < 31.6 nM | IC50 (second compound 0.3 µM): < 31.6 nM
SMILES: CC(=O)OC12COC1CC(O)C1(C)C(=O)C(O)C3=C(C)C(OC(=O)C(O)C(NC(=O)OC(C)(C)C)c4ccccc4)CC(O)(C(OC(=O)c4ccccc4)C21)C3(C)C (centres undefined) + CCn1c(-c2cc(N3CCN(C)CC3)cnc2C(C)OC)c2c3cc(ccc31)-c1csc(n1)CC(NC(=O)C1CC1C)C(=O)N1CCCC(N1)C(=O)OCC(C)(C)C2
viability, T/C [1]: 38.4% | viability, T/C [2]: 32.3% | viability, T/C [3]: 21.8% | viability, T/C [4]: 32.2% | viability, T/C (second compound 0.000949 µM, first compound 3.16 µM): 31.9% | viability, T/C (second compound 0.000949 µM, first compound 10 µM): 27.6% | viability, T/C [5]: 34.2% | viability, T/C [6]: 23.3% | viability, T/C [7]: 22.6% | viability, T/C [8]: 26.7% | viability, T/C (second compound 0.003 µM, first compound 3.16 µM): 32.5% | viability, T/C (second compound 0.003 µM, first compound 10 µM): 25.2% | viability, T/C [9]: 26% | viability, T/C [10]: 19% | viability, T/C [11]: 21.9% | viability, T/C [12]: 20.2% | viability, T/C (second compound 0.00949 µM, first compound 3.16 µM): 20.9% | viability, T/C (second compound 0.00949 µM, first compound 10 µM): 16.8% | viability, T/C [13]: 19.1% | viability, T/C [14]: 16.3% | viability, T/C [15]: 17.9% | viability, T/C [16]: 19% | viability, T/C (second compound 0.03 µM, first compound 3.16 µM): 11.6% | viability, T/C (second compound 0.03 µM, first compound 10 µM): 10% | viability, T/C [17]: 11.7% | viability, T/C [18]: 11.9% | viability, T/C [19]: 13.4% | viability, T/C [20]: 10.5% | viability, T/C (second compound 0.0949 µM, first compound 3.16 µM): 6.83% | viability, T/C (second compound 0.0949 µM, first compound 10 µM): 6.76% | viability, T/C [21]: 9.32% | viability, T/C [22]: 9.15% | viability, T/C [23]: 7.89% | viability, T/C [24]: 8.09% | viability, T/C (second compound 0.3 µM, first compound 3.16 µM): 7.91% | viability, T/C (second compound 0.3 µM, first compound 10 µM): 6.31%

IC50 (second compound 0.000949 µM): > 1000 nM | IC50 (second compound 0.003 µM): > 1000 nM | IC50 (second compound 0.00949 µM): > 1000 nM | IC50 (second compound 0.03 µM): > 1000 nM | IC50 (second compound 0.0949 µM): > 1000 nM | IC50 (second compound 0.3 µM): > 1000 nM
SMILES: CCN1CCN(Cc2ccc(Nc3ncc(F)c(-c4cc(F)c5nc(C)n(C(C)C)c5c4)n3)nc2)CC1 + CCn1c(-c2cccnc2C(C)OC)c2c3cc(ccc31)N1CCOC(CC(NC(=O)C(C(C)C)N(C)C(=O)C3(F)CCN(C(=O)C#CC(C)(C)N(C)C)CC3)C(=O)N3CCCC(N3)C(=O)OCC(C)(C)C2)C1
viability, T/C (second compound 0.000949 µM, first compound 0.00316 µM): 102% | viability, T/C (second compound 0.000949 µM, first compound 0.01 µM): 92.2% | viability, T/C [1]: 78.6% | viability, T/C [2]: 88.5% | viability, T/C [3]: 102% | viability, T/C [4]: 99.6% | viability, T/C (second compound 0.003 µM, first compound 0.00316 µM): 109% | viability, T/C (second compound 0.003 µM, first compound 0.01 µM): 93.5% | viability, T/C [5]: 81.5% | viability, T/C [6]: 88.2% | viability, T/C [7]: 103% | viability, T/C [8]: 94.7% | viability, T/C (second compound 0.00949 µM, first compound 0.00316 µM): 102% | viability, T/C (second compound 0.00949 µM, first compound 0.01 µM): 99.4% | viability, T/C [9]: 93.1% | viability, T/C [10]: 86.5% | viability, T/C [11]: 98.4% | viability, T/C [12]: 109% | viability, T/C (second compound 0.03 µM, first compound 0.00316 µM): 97.5% | viability, T/C (second compound 0.03 µM, first compound 0.01 µM): 94.7% | viability, T/C [13]: 85.8% | viability, T/C [14]: 97.2% | viability, T/C [15]: 88.2% | viability, T/C [16]: 117% | viability, T/C (second compound 0.0949 µM, first compound 0.00316 µM): 83.8% | viability, T/C (second compound 0.0949 µM, first compound 0.01 µM): 92.8% | viability, T/C [17]: 93.4% | viability, T/C [18]: 93.1% | viability, T/C [19]: 83.8% | viability, T/C [20]: 107% | viability, T/C (second compound 0.3 µM, first compound 0.00316 µM): 83.5% | viability, T/C (second compound 0.3 µM, first compound 0.01 µM): 79.2% | viability, T/C [21]: 79.5% | viability, T/C [22]: 77.7% | viability, T/C [23]: 93% | viability, T/C [24]: 116%
